According to patent publication US20100048549A1, “Peptidomimetics selective for the somatostatin receptor subtypes 1 and/or 4” (priority 2005, published 2010):
Counter-ions that a name gives are not always drawn. Like-named read-outs stand apart in the source and are kept apart here.

Assays:
[1] = target: T1, human somatostatin receptor subtype sst1 (Homo sapiens, UniProt P30872); assay: Competition binding with 125I-LTT-SRIF-28, CHO cell membranes, sst1
T1 construct: expressed in transfected cells; host or cells: CHO cells (membranes)
Protocol: (§1) The affinity of the compounds of the invention for the five human somatostatin receptor subtypes (sst1, sst2, sst3, sst4, and sst5) was determined in competition binding assays with (^125I-Tyr)-[Leu^8, DTrp^22]-Somatostatin-28 (^125I-LTT-SRIF-28). The biological material for these experiments consisted of membranes from Chinese hamster ovary (CHO) cells stably transfected with one of the five human somatostatin receptor subtypes. Membranes (3-20 μg of total protein per sample) and trace amount of ^125I-LTT-SRIF-28 were incubated in 10 mM Hepes, 1 mM EDTA, 5 mM MgCl2, 5 mg/ml of BSA and 30 μg/ml bacitracin, pH 7.6, with six concentrations of the compounds. Each concentration was run in duplicate. Nonspecific binding was defined by 1 μM somatostatin-14 (SRIF-14) and corresponded to 5-25% of total binding. After 60 min at room temperature, incubations were terminated by rapid vacuum filtration through GF/B glass fiber filter mats (presoaked at 4° C. in 200 ml of 10 mM Hepes, 1 mM EDTA, 5 mM MgCl2, pH 7.6) and three 5 ml washes with ice-cold wash buffer (20 mM TRIS, 1 mM EDTA, 5 mM MgCl2, pH 7.4). The filters were then dried, impregnated with scintillate and their radioactivity was measured by scintillation counting. The analysis of the experiments was carried out by nonlinear least square curve fitting. Affinity constants (Ki) were calculated from the IC50 values according to the Cheng-Prusoff's equation (Cheng and Prusoff, 1973). Experiments were repeated a minimum of three times.

[2] = target: T2, human somatostatin receptor subtype sst5 (Homo sapiens, UniProt P35346); assay: Competition binding with 125I-LTT-SRIF-28, CHO cell membranes, sst5; settings: membranes of CHO cells transfected with human sst5
T2 construct: expressed in transfected cells; host or cells: CHO cells (membranes)
Protocol: as §1, with “The analysis of the experiments was carried out by nonlinear least square curve fitting.” left out, “Experiments were repeated a minimum of three times.” left out

[3] = target: T3, human somatostatin receptor subtype sst4 (Homo sapiens, UniProt P31391); assay: Competition binding with 125I-LTT-SRIF-28, CHO cell membranes, sst4
T3 construct: expressed in transfected cells; host or cells: CHO cells (membranes)
Protocol: as §1

[4] = target: T4, human somatostatin receptor subtype sst2 (Homo sapiens, UniProt P30874); assay: Competition binding with 125I-LTT-SRIF-28, CHO cell membranes, sst2; settings: membranes of CHO cells transfected with human sst2
T4 construct: expressed in transfected cells; host or cells: CHO cells (membranes)
Protocol: as §1, with “The analysis of the experiments was carried out by nonlinear least square curve fitting.” left out, “Experiments were repeated a minimum of three times.” left out

[5] = target: T5, human somatostatin receptor subtype sst3 (Homo sapiens, UniProt P32745); assay: Competition binding with 125I-LTT-SRIF-28, CHO cell membranes, sst3; settings: membranes of CHO cells transfected with human sst3
T5 construct: expressed in transfected cells; host or cells: CHO cells (membranes)
Protocol: as §1, with “The analysis of the experiments was carried out by nonlinear least square curve fitting.” left out, “Experiments were repeated a minimum of three times.” left out

[6] = clinical trials; Eriksen et al. 1995, van Essen et al. 1997; cited from earlier work
[7] = membranes of CHO cells transfected with human sst1, read-out: sst1 Ki
[8] = membranes of CHO cells transfected with human sst4, read-out: sst4 Ki
[9] = bound only, read-out: Ki values for the sst1
[10] = bound only, read-out: Ki values for the sst4

T3 sequence (P31391 whole entry): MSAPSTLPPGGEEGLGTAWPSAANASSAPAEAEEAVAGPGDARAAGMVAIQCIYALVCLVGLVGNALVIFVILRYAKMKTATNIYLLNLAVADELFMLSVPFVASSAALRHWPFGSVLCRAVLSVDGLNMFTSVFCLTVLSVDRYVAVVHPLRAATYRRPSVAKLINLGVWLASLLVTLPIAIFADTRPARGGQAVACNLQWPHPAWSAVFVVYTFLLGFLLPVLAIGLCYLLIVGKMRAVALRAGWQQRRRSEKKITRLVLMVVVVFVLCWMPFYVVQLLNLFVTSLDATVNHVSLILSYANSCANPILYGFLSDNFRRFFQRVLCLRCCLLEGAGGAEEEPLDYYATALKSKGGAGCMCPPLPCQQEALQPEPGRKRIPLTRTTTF
T1 sequence (P30872 whole entry): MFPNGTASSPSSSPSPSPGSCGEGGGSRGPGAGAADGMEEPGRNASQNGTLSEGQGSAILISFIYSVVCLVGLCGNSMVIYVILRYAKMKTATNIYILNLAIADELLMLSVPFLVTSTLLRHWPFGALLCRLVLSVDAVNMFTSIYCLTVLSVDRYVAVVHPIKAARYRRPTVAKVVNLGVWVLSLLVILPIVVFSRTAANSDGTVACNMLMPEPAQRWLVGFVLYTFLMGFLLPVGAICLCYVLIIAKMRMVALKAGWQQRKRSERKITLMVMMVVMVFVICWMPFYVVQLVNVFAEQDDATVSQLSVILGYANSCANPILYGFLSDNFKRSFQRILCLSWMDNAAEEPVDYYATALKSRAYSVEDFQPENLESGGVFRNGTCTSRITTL
T4 sequence (P30874 whole entry): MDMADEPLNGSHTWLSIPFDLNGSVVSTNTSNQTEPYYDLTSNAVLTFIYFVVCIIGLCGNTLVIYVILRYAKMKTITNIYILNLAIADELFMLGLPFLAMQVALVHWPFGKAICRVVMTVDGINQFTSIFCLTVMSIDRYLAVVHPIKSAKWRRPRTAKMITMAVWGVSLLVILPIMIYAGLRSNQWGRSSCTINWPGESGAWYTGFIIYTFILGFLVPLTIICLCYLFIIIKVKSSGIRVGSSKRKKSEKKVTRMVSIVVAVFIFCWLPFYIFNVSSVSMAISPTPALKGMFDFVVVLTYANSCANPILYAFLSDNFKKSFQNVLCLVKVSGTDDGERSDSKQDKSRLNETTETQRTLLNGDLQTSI
T2 sequence (P35346 whole entry): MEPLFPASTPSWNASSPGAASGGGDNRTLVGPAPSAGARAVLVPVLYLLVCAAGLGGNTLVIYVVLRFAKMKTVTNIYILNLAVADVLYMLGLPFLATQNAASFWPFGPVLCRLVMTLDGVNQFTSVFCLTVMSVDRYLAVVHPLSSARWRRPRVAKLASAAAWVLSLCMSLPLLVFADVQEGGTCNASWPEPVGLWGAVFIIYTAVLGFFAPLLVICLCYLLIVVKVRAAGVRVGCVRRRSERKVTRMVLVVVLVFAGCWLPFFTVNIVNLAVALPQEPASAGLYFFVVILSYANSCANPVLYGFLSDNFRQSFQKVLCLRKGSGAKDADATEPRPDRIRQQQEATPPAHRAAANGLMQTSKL
T5 sequence (P32745 whole entry): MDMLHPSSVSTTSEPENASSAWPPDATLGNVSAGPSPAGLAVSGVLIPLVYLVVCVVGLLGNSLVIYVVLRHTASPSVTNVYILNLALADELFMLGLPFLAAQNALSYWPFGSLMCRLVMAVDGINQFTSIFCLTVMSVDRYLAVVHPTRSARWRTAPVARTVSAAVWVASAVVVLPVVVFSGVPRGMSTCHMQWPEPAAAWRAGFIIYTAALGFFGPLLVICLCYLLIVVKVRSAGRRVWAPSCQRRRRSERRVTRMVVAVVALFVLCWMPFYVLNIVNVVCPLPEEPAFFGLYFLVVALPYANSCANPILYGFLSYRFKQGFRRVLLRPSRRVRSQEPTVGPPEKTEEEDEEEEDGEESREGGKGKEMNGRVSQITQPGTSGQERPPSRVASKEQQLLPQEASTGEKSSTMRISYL

| Ki [1, 7] [nM] | Ki [2] [µM] | Ki [3, 8] [nM] | Ki [4] [µM] | Ki [5] [µM] | Ki [1, 9] [nM] | Ki [3, 10] [nM] | Compound | efficacy in prevention of restenosis [6] |
| --- | --- | --- | --- | --- | --- | --- | --- | --- |
| 200 ± 60 | > 3 | 5.6 ± 3.2 | > 10 | > 3 | – | – | Cc1ccc(S(=O)(=O)N[C@@H](CCN)CNCc2ccccc2)c2ccccc12 [compound 2, (S)-4-methylnaphthalene-1-sulfonic acid (3-amino-1-benzyl-aminomethylpropyl)amide] | – |
| 9.6 ± 0.5 | > 3 | 110 ± 10 | > 10 | > 3 | < 300 | < 300 | Cc1ccc(S(=O)(=O)N[C@@H](CCCNC(C)C)COc2ccccc2)c2ccccc12 [compound 33, (S)-4-methylnaphthalene-1-sulfonic acid (4-isopropylamino-1-phenoxymethylbutyl)amide] | – |
| – | – | – | – | – | < 300 | < 300 | Cc1ccc(S(=O)(=O)N[C@H](CCN)COCc2ccccc2)c2ccccc12 [compound 64, (R)-4-methylnaphthalene-1-sulfonic acid (3-amino-1-benzyloxymethylpropyl)amide] | – |
| – | – | – | – | – | < 300 | < 300 | Cc1ccc(S(=O)(=O)N[C@@H](CCNC2=NCCN2)COCc2ccccc2)c2ccccc12 [compound 79, (S)-4-methylnaphthalene-1-sulfonic acid [1-benzyloxymethyl-3-(4,5-dihydro-1H-imidazol-2-ylamino)propyl]amide formic acid salt] | – |
| – | – | – | – | – | – | – | CC(C)[C@@H]1NC(=O)[C@H](CCCCN)NC(=O)[C@@H](Cc2c[nH]c3ccccc23)NC(=O)[C@H](Cc2ccc(O)cc2)NC(=O)[C@@H](NC(=O)[C@H](N)Cc2ccc3ccccc3c2)CSSC[C@@H](C(=O)N[C@H](C(N)=O)[C@@H](C)O)NC1=O [lanreotide] | failed to show efficacy |
| – | – | – | – | – | – | – | C[C@@H](O)[C@@H]1NC(=O)[C@H](CCCCN)NC(=O)[C@@H](Cc2c[nH]c3ccccc23)NC(=O)[C@H](Cc2ccccc2)NC(=O)[C@@H](NC(=O)[C@H](N)Cc2ccccc2)CSSC[C@@H](C(=O)N[C@H](CO)[C@@H](C)O)NC1=O [octreotide] | failed to show efficacy |
